The results in this text go back to patent US20250034196A1, “ESTER DERIVATIVES OF N4-HYDROXYCYTIDINE AND USE THEREOF” (priority 2021, published 2025).

One series in a line: in vivo. Also noted: species or system Beagle Dogs. As to conditions: dog, po, 10 mg/kg; for AUC(0-inf): AUCINF of EX-1/NHC/CH2018; for AUC(0-t): AUClast of EX-1/NHC/CH2018; for Cmax: Cmax of EX-1/NHC/CH2018; for half-life: T1/2 of EX-1/NHC/CH2018; for Tmax: Tmax of EX-1/NHC/CH2018. As to the method:
Example 174: Pharmacokinetic Study of EX-2 (CH2101), Molnupiravir (CH2017) and its Metabolite NHC (CH2018) Following a Single PO Administration of EX-2 (CH2101) or Molnupiravir (CH2017) in Male and Female Beagle Dogs
Both test compounds were prepared in 1% methyl cellulose (400 cps, SIGMA, SLCF9694) solution in purified water.
A total of 6 male+6 female Beagle Dogs, approximately 7-13 kg of bodyweight, were originally purchased from Marshall Biotechnology Co., Ltd. The animals were fasted overnight prior to dosing and food was re-provided after 4 hours post dosing.
The animals were restrained manually, and approximately 1 mL of blood at each time point was collected into pre-cooled EDTA-K2 tubes via cephalic or saphenous veins. Blood samples were centrifuged at 4° C. (4000 rpm. 5 min) to obtain plasma within 30 min after sample collection. All samples were stored at approximately −80° C. until analysis. The backup samples will be discarded after the in vivo experiment has been completed for two months unless requested.

A short description of series [1]: in vitro. Format: in vitro ADME. As to conditions: plasma. As for the experimental part: (§1) Preparation of Solutions: Stock solution (10 mM) of each of test compounds was prepared in DMSO. The stock solution for each compound was then diluted into 100 μM with acetonitrile.
Plasma Incubations: Plasma incubations were conducted in duplicate in 96-well plate at 37° C. Plasma was prewarmed in a total volume of 198 μL for 5 min at 37° C., then added 2 μL of 100 μM test compound into an incubation well containing plasma, pipette-mixed to achieve a homogenous suspension and immediately transferred 20 μL incubate as a 0 min sample to wells in a “Quenching” plate followed by adding 200 μL of acetonitrile with metolazone as internal standard (IS) and pipette-mixing. At 2, 5, 60, and 90 min, pipette-mixed the incubate and serially transfer samples of 20 μL incubate per time point to wells in a separate “Quenching” plate followed by adding 200 μL of acetonitrile with metolazone as IS and pipette-mixing.
(§2) Sample Analysis: The 96-well plate was centrifuged at 6000 g for 10 min. The supernatant was injected onto the LC-MS/MS system for analysis.

Series [2] is described as follows: in vitro. To be noted: microsomes; for half-life at 1 µM: pH 7.4. It is filed as in vitro ADME. As for the experimental part:
as §1
(§3) Microsome Incubations: Incubation mixtures were prepared in a total volume of 200 μL with final component concentrations as follows: 0.1M PBS (pH 7.4), NADPH (2 mM) and liver microsomes (0.2 mg/mL) as well as test compound (1 μM) or Molnupiravir (1 μM) as a positive control, wherein the NADPH was added after a 5-min preincubation of all other components at 37° C. Pipette-mixed to achieve a homogenous suspension and immediately transferred 20 μL incubate as a 0 min sample to wells in a “Quenching” plate followed by adding 200 μL of acetonitrile with metolazone as IS and pipette-mixing. At 2, 5, 10, and 45 min, pipette-mixed the incubate and serially transfer samples of 20 μL incubate per time point to wells in a separate “Quenching” plate followed by adding 200 μL of acetonitrile with metolazone as IS and pipette-mixing.
as §2

The next series can be described thus: Microsome stability. Format: in vitro ADME, Monkey. As to conditions: monkey, microsomes, pH 7.4. As for the experimental part:
as §1, §3, §2

Series [3] relates to SARS-CoV-2, Hongkong strain. Format: in vivo, K18 hACE2 transgenic mice.
[4] abbreviates: Remdesivir 25 mpk SC twice daily.

On to `O=c1nc(NO)ccn1[C@@H]1O[C@H](CO)[C@@H](O)[C@H]1O` [EX-1/NHC/CH2018, NHC], for which, in the series “in vivo” (both sexes, beagle), the AUC(0-inf) (usually the area under the concentration-time curve extrapolated to infinity) amounted to 9680 ng·h/mL; the AUC(0-t) (as a rule, exposure summed from dosing to a finite time, without extrapolation to infinity) was 9580 ng·h/mL; the Cmax (in general, the highest concentration seen after dosing) is 4780 ng/mL; the half-life (usually how long it takes for the measured level to halve) was 227 min. Moreover, the Tmax (commonly the time at which the peak concentration occurs) in the series “in vivo” (both sexes, beagle) stood at 52.5 min. Moreover, the “AUCmale/female of EX-1/NHC/CH2018” value in “in vivo” (both, Beagle) stood at 158%. Also, in the series “in vivo” (female, beagle), the “AUCINF of EX-1/NHC/CH2018” value was 7683 ng·h/mL, the “AUClast of EX-1/NHC/CH2018” value is 7632 ng·h/mL, the “Cmax of EX-1/NHC/CH2018” value came out at 3940 ng/mL and the “T1/2 of EX-1/NHC/CH2018” value is 63.6 min. Moreover, in “in vivo” (female, beagle), the AUC(0-inf) was determined as 7310 ng·h/mL, the AUC(0-t) turned out to be 7220 ng·h/mL, the concentration peaked (Cmax) at 4550 ng/mL and the half-life was 76.8 min. For the same molecule, the Tmax in the series “in vivo” (female, beagle) was determined as 60 min. Further, in “in vivo” (male, beagle), the “AUCINF of EX-1/NHC/CH2018” value worked out at 11046 ng·h/mL, the “AUClast of EX-1/NHC/CH2018” value was determined as 10957 ng·h/mL, the “Cmax of EX-1/NHC/CH2018” value came out at 5240 ng/mL and the “T1/2 of EX-1/NHC/CH2018” value turned out to be 343 min. Also, in “in vivo” (male, beagle), the “Tmax of EX-1/NHC/CH2018” value worked out at 30 min, the AUC(0-inf) turned out to be 12700 ng·h/mL, the AUC(0-t) worked out at 12500 ng·h/mL and the Cmax was 5380 ng/mL. Also, in the series “in vivo” (male, beagle), the half-life is 425 min and the Tmax is 60 min.
Consider `CC(C)C(=O)ONc1ccn([C@@H]2O[C@H](CO)[C@@H](O)[C@H]2O)c(=O)n1` [EX-3], for which the half-life at 1 µM in “in vitro [1]” (dog) was found to be 21.2 min; in the series “in vitro [1]” (human), 2.8 min; in “in vitro [1]” (monkey), 3.2 min; in the series “in vitro [1]” (mouse), 0.6 min; in “in vitro [1]” (rat), 25.9 min; in “in vitro [2]” (dog) it was 33.8 min. For the same molecule, the half-life at 1 µM in “in vitro [2]” (human) worked out at 13.5 min; in the series “in vitro [2]” (mouse) it was 6.8 min; in the series “in vitro [2]” (rat), 46.6 min; in “Microsome stability” it was 4.4 min.
With `O=C(ONc1ccn([C@@H]2O[C@H](CO)[C@@H](O)[C@H]2O)c(=O)n1)C1CC1` [EX-15], the half-life at 1 µM in the series “in vitro [1]” (dog) is 109 min; in the series “in vitro [1]” (human) it was 5.8 min; in the series “in vitro [1]” (monkey), 16.5 min; in “in vitro [1]” (mouse), 5.2 min; in “in vitro [1]” (rat), 88.9 min; in the series “in vitro [2]” (dog), 132 min. The half-life at 1 µM came to 67.3 min in the series “in vitro [2]” (human), 15.4 min in the series “in vitro [2]” (mouse) and 25 min in the series “Microsome stability”. In “in vitro [2]” (rat), the T1/2 entry was “∞”.
With `COC(C)(C)C(=O)ONc1ccn([C@@H]2O[C@H](CO)[C@@H](O)[C@H]2O)c(=O)n1` [EX-53], the half-life at 1 µM in “in vitro [1]” (dog) was 156 min; in “in vitro [1]” (human), 4.8 min; in “in vitro [1]” (monkey) it was 9.8 min; in the series “in vitro [1]” (mouse), 3.1 min; in the series “in vitro [1]” (rat) it was 94.3 min; in “in vitro [2]” (dog), 87.5 min. Also, the half-life at 1 µM in “in vitro [2]” (human) was 86.6 min; in “in vitro [2]” (mouse), 17.1 min; in the series “in vitro [2]” (rat) it was 70.5 min; in “Microsome stability” it was 7.3 min.
Consider `CCC(CC)COC(=O)[C@H](C)N[P@](=O)(OC[C@H]1O[C@@](C#N)(c2ccc3c(N)ncnn23)[C@H](O)[C@@H]1O)Oc1ccccc1` [Remdesivir], for which the Survival proportions in series [3] (14-day study, twice daily days 0-6, CH2101 450 mg/kg PO, Remdesivir 25 mg/kg SC) was found to be 0%. In series [3] (setting [4]), the “Body weight loss observed from day” value was found to be 2 days, the “Gross clinical symptoms appear from day” value is 6 days and the “Max clinical symptom score (mean value)” value came to 2. In series [3] (compared with vehicle group (group 1), Remdesivir 25 mg/kg SC), this molecule returned a Prolonged survival time of 20%. For the same molecule, in series [3] (day 5), the “Virus titer in lung, comparison with Remdesivir group (mean difference)” value is 2.47. Further, in series [3] (day 5, plaque assay, mean, twice daily days 0-4, CH2101 450 mpk PO, Remdesivir 25 mpk SC), the “Virus titer in lung” value turned out to be 5.11 Log 10 plaque#/g lung. For the same molecule, in series [3] (day 5, CH2101 450 mpk PO, Remdesivir 25 mpk SC), the “Virus titer in lung, mean difference vs. group 1 (Vehicle group)” value is given as 0.83 Log. Besides, in series [3] (day 6, normalized to day 0, Remdesivir 25 mpk SC twice daily), the Body weight change is on record as −13.6%. The molecule further had a Median survival time in series [3] (twice daily days 0-6, CH2101 450 mg/kg PO, Remdesivir 25 mg/kg SC) of 6 days.
